In patent publication US6242216A, “Nucleic acids encoding a functional human purinoreceptor P2X2 and P2X4, and methods of production and use thereof” (Abbott Laboratories, priority 1998, dated 2001):
Values joined by “and” are separate entries in the source; they are usually repeats but may differ in a detail not shown here. Identical values can stand only once. Like-named read-outs stand apart in the source and are kept apart here.

What was measured:
hP2X2d = assay: Two-electrode voltage-clamp of Xenopus oocytes injected with hP2X2d RNA; type: cell-based, human; details: 30 μM ATP, transient external application
Method: (§1) To assess function of the human P2X2 receptors, RNA was synthesized from the clones using the T7 bacterial promoter present on the pCRscript vector and reagents from Ambion (Message Machine; Ambion, Inc., Austin Tex.).
(§2) Adult female frogs (Xenopus laevis) were anesthetized with 0.2% tricaine before surgery. During surgery, sections of one ovary were removed and oocytes were denuded of overlying follicle cells by agitation for 1-2 hours in 2 mg/ml collagenase (Sigma type IA) in low-Ca^2+ Barth's solution containing (in mM): 88 NaCl, 2.5 KCl, 1.0 MgCl2 10 Na-HEPES (pH 7.4) plus 100 μg/ml gentamicin. Selection of stage V and VI oocytes was begun after approximately 50% of the cells were denuded. Cytoplasmic injections of 50 ng hP2X2a-d RNA were performed on denuded oocytes using a glass microelectrode. Only one receptor subtype RNA was injected per cell. […]
(§3) Transmembrane currents were recorded using two-electrode voltage-clamp techniques with an Axoclamp-2 A amplifier, and were collected and analyzed using pCLAMP software (Axon Instruments). […] Responses to ATP and α,βme-ATP were routinely recorded at room temperature while the oocyte membrane was voltage-clamped at -60 mV. […]

hP2X2c = assay: Two-electrode voltage-clamp of Xenopus oocytes injected with hP2X2c RNA; type: cell-based, human; details: 30 μM ATP, transient external application
Method: as §1, §2, §3

hP2X2b receptors = target: T1, hP2X2b receptors (Homo sapiens, UniProt Q9UBL9); assay: Two-electrode voltage-clamp of Xenopus oocytes expressing hP2X2b receptors; type: cell-based
T1 construct: expressed in transfected cells; host or cells: Xenopus laevis oocytes, cytoplasmic injection of 50 ng in vitro transcribed RNA, one subtype per cell
T1 sequence (Q9UBL9 1-404 isoform Q9UBL9-2): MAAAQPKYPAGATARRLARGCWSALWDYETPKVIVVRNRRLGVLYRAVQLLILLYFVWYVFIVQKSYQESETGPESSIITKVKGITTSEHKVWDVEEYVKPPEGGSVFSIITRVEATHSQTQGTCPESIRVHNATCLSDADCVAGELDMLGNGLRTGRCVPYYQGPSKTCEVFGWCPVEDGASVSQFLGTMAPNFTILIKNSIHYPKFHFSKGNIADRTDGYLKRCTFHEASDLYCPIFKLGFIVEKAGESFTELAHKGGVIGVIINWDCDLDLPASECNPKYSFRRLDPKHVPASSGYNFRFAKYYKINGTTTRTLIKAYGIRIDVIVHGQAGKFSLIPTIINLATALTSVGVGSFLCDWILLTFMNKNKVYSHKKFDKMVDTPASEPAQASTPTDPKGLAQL
Method: as §1
(§4) Adult female frogs (Xenopus laevis) were anesthetized with 0.2% tricaine before surgery. During surgery, sections of one ovary were removed and oocytes were denuded of overlying follicle cells by agitation for 1-2 hours in 2 mg/ml collagenase (Sigma type IA) in low-Ca^2+ Barth's solution containing (in mM): 88 NaCl, 2.5 KCl, 1.0 MgCl2 10 Na-HEPES (pH 7.4) plus 100 μg/ml gentamicin. Selection of stage V and VI oocytes was begun after approximately 50% of the cells were denuded. Cytoplasmic injections of 50 ng hP2X2a-d RNA were performed on denuded oocytes using a glass microelectrode. Only one receptor subtype RNA was injected per cell. Oocytes were used for recording 1-2 days after injection and were maintained at 16-19° C. in normal Barth's solution (incubation medium in mM): 90 NaCl, 1.0 KCl, 0.66 NaNO3, 0.74 CaCl2, 0.82 MgCl2, 2.4 NaHCO3, 2.5 Na-pyruvate, 10 Na-HEPES (pH 7.4) plus 100 μg/ml gentamicin.
(§5) The standard recording solution contained (in mM): 96 NaCl, 2.0 KCl, 1.8 BaCl2, 1.0 MgCl2, 5.0 Na-pyruvate, and 5.0 Na-HEPES (pH 7.4). BaCl2 was replaced with CaCl2 (1 mM) in some experiments without significant effects on the pharmacological properties of the receptors. All oocyte solutions were diluted in distilled H2 O from 10×stock solutions. Concentrated stocks of agonists and antagonists were made in distilled H2 O and then serially diluted in recording solution to desired final concentrations. All chemicals and agonists (ATP and α,βme-ATP) were obtained from Sigma Chemical Company.
(§6) Transmembrane currents were recorded using two-electrode voltage-clamp techniques with an Axoclamp-2 A amplifier, and were collected and analyzed using pCLAMP software (Axon Instruments). Electrodes (1.5-2.0 M'.OMEGA.) were filled with 120 mM KCl. Responses to ATP and α,βme-ATP were routinely recorded at room temperature while the oocyte membrane was voltage-clamped at -60 mV. […]

hP2X2a receptors = target: T2, hP2X2a receptors (Homo sapiens, UniProt Q9UBL9); assay: Two-electrode voltage-clamp of Xenopus oocytes expressing hP2X2a receptors; type: cell-based
T2 construct: expressed in transfected cells; host or cells: Xenopus laevis oocytes, cytoplasmic injection of 50 ng in vitro transcribed RNA, one subtype per cell
T2 sequence (Q9UBL9 1-471): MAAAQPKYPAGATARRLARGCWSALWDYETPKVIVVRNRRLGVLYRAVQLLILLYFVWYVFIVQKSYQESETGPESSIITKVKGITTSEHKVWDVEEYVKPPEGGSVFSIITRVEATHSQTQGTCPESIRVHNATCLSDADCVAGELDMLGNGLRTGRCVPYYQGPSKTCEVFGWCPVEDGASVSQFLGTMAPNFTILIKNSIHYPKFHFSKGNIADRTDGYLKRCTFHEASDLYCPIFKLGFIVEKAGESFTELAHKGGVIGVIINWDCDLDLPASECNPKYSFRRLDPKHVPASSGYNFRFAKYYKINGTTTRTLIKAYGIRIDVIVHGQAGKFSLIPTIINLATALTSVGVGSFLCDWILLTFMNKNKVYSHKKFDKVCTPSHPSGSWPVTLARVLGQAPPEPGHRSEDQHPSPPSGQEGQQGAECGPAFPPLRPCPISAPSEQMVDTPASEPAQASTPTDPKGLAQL
Method: as §1, §4, §5, §6

human P2X4 receptor = target: T3, human P2X4 receptor (Homo sapiens, UniProt Q99571); assay: Two-electrode voltage-clamp of Xenopus oocytes expressing recombinant human P2X4 receptors; type: cell-based
T3 construct: expressed in transfected cells; host or cells: Xenopus laevis oocytes, nuclear injection of P2X4-pCDNA3.1 DNA (10 ng) or cytoplasmic injection of RNA (50 ng)
T3 sequence (Q99571 1-388): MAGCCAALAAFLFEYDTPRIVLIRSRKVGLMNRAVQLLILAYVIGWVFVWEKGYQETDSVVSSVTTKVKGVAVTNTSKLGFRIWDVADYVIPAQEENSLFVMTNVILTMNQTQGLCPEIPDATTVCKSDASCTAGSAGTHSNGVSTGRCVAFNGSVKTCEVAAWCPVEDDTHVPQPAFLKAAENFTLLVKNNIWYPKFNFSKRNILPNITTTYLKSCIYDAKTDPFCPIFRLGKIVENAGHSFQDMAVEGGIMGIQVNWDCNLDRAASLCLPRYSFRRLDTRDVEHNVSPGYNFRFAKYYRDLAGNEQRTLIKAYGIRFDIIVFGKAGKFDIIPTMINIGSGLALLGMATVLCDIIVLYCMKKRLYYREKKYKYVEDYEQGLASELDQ
Method: Responses were measured at a holding potential of -60 mV in modified Barth's solution containing 10 mM BaCl2 and lacking CaCl2 and MgCl2. However, in some experiments, the cell potential was intentionally varied in order to determine the response current-voltage relationship. Agonist was applied briefly using a computer-controlled solenoid valve and a push/pull applicator positioned to within 200-400 μm from the oocyte. Responses were recorded by computer in synchrony with agonist application. Antagonists were included with agonist in the push/pull applicator and were applied to the bath by superfusion for at least 3 minutes before application of agonist. Responses were quantified by measuring the peak amplitude.
The clone was grown up and prepared in large scale using the QlAgen maxiprep DNA preparation system according to the manufacturer's instructions. The DNA was ethanol precipitated and resuspended in TE buffer. For RNA production, the P2X4 -pCNDA3.1 cvonstruct was linearized by digestion with the restriction enzyme Notl and P2X4 messenger RNA was produced using the T7 promoter in this vector and the Ambion mMessage mMachine in vitro transcription kit according to the manufacturer's instructions.
For functional analysis of human P2X4 receptors, 10 ng of human P2X4 receptor DNA prepared as described above was injected into the nucleus of Xenopus oocytes. Alternatively, 50 ng of human P2X4 receptor RNA prepared as described above was injected into the ooxyte cytoplasm. Oocytes were incubated in normal Barth's solution containing 100 μg/ml gentamicin for 2-7 days following injection. The response to 10 μM ATP was then recorded.

## Nc1ncnc2c1ncn2[C@@H]1O[C@H](COP(=O)(O)OP(=O)(O)OP(=O)(O)O)[C@@H](O)[C@H]1O [ATP]
hP2X2d
  agonist effect on receptor current: had no effect
hP2X2c
  agonist effect on receptor current: had no effect
hP2X2b receptors; oocytes expressing hP2X2b, three cells
  Hill coefficient (nH): 1.5
hP2X2b receptors; oocytes expressing hP2X2b, three cells, -60 mV, read-out: mean ATP EC50 (peak inward current)
  EC50: 20000 nM
hP2X2a receptors; oocytes expressing hP2X2a, four cells
  Hill coefficient (nH): 1.5
hP2X2a receptors; oocytes expressing hP2X2a, four cells, -60 mV, read-out: mean ATP EC50 (peak inward current)
  EC50: 16000 nM
Human P2X4 receptor; DNA-injected oocytes, concentration-response 0.1-1000 μM ATP
  EC50: ~2000 nM and 1000 to 2000 nM
Human P2X4 receptor; RNA-injected oocytes, read-out: ATP EC50
  EC50: 1000 to 2000 nM
Human P2X4 receptor; oocytes injected with human P2X4 receptor DNA
  mixed-conductance cation current on extracellular application of ATP: 100-1000 nA

## Cc1ccc(C(=O)Nc2ccc(S(=O)(=O)O)c3cc(S(=O)(=O)O)cc(S(=O)(=O)O)c23)cc1NC(=O)c1cccc(NC(=O)Nc2cccc(C(=O)Nc3cc(C(=O)Nc4ccc(S(=O)(=O)O)c5cc(S(=O)(=O)O)cc(S(=O)(=O)O)c45)ccc3C)c2)c1 [suramin]
Human P2X4 receptor; DNA-injected oocytes, suramin 10 μM, ATP 10 μM
  antagonism of ATP-induced currents: failed to depress
Human P2X4 receptor; RNA-injected oocytes, suramin 1 μM, ATP 3 μM
  antagonism of ATP responses: failed to depress
Human P2X4 receptor; RNA-injected oocytes, suramin 10 μM, ATP 3 μM
  antagonism of ATP responses: failed to depress
Human P2X4 receptor; RNA-injected oocytes, suramin 100 μM, ATP 3 μM, read-out: ATP response remaining, % of control
  remaining activity at 100 µM: ~80%

## Nc1ncnc2c1ncn2[C@@H]1O[C@H](COP(=O)(O)CP(=O)(O)OP(=O)(O)O)[C@@H](O)[C@H]1O [αβMe-ATP, α,β-methylene-ATP]
hP2X2b receptors; 100 μM agonist, hP2X2b
  agonist effect on receptor current: had no effect
hP2X2a receptors; 100 μM agonist, hP2X2a
  agonist effect on receptor current: had no effect
Human P2X4 receptor; RNA-injected oocytes, read-out: maximal current relative to maximal ATP current
  Emax: 20 to 25%
